In patent publication US12077503B2, “Substituted cyclic amides and their use as herbicides” (FMC CORPORATION, priority 2015, dated 2024):

What was measured:
Assay type in all cases: in vivo
[1] = test system: ivy-leaved morning glory (Ipomoea hederacea); assay: Test G Post-Emergence Protocol; details: Ipomoea, post-emergence, 312 h, read-out: Morningglory, Ivy-leaved damage rating; for pest or weed control at 15.625 g/ha: 15.625 g ai/ha, evaluated after 13 days (100=total damage to plant; 0=no damage to plant); for pest or weed control at 62.5 g/ha: 62.5 g ai/ha; for pest or weed control at 62.5 g/ha / pest or weed control at 250 g/ha: evaluated after 13 days, 100=total damage to plant, 0=no damage to plant; for pest or weed control at 250 g/ha: 250 g ai/ha
Summary of the method: (§1)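 Post-emergence herbicidal damage, scored visually 0–100 at 13 days. Application at 15.625, 62.5 or 250 g/ha onto 8-day-old plants grown under glasshouse control.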

[2] = test system: velvetleaf (Abutilon theophrasti); assay: Test G Post-Emergence Protocol; details: Abutilon theophrasti, post-emergence, 312 h, read-out: Velvetleaf damage rating; for pest or weed control at 15.625 g/ha: 15.625 g ai/ha, evaluated after 13 days (100=total damage to plant; 0=no damage to plant); for pest or weed control at 62.5 g/ha: 62.5 g ai/ha; for pest or weed control at 62.5 g/ha / pest or weed control at 250 g/ha: evaluated after 13 days, 100=total damage to plant, 0=no damage to plant; for pest or weed control at 250 g/ha: 250 g ai/ha
Summary of the method: as §1

[3] = test system: redroot pigweed (Amaranthus retroflexus); assay: Test G Post-Emergence Protocol; details: Amaranthus retroflexus, post-emergence, 312 h, read-out: Pigweed, Redroot damage rating; for pest or weed control at 15.625 g/ha: 15.625 g ai/ha, evaluated after 13 days (100=total damage to plant; 0=no damage to plant); for pest or weed control at 62.5 g/ha: 62.5 g ai/ha; for pest or weed control at 62.5 g/ha / pest or weed control at 250 g/ha: evaluated after 13 days, 100=total damage to plant, 0=no damage to plant; for pest or weed control at 250 g/ha: 250 g ai/ha
Summary of the method: as §1

[4] = test system: barnyardgrass (Echinochloa crus-galli); assay: Test G Post-Emergence Protocol; details: Echinochloa crus-galli, post-emergence, 312 h, read-out: Barnyardgrass damage rating; for pest or weed control at 15.625 g/ha: 15.625 g ai/ha, evaluated after 13 days (100=total damage to plant; 0=no damage to plant); for pest or weed control at 62.5 g/ha: 62.5 g ai/ha; for pest or weed control at 62.5 g/ha / pest or weed control at 250 g/ha: evaluated after 13 days, 100=total damage to plant, 0=no damage to plant; for pest or weed control at 250 g/ha: 250 g ai/ha
Summary of the method: as §1

[5] = test system: giant foxtail (Setaria faberi); assay: Test G Post-Emergence Protocol; details: Setaria faberi, post-emergence, 312 h, read-out: Foxtail, Giant damage rating; for pest or weed control at 15.625 g/ha: 15.625 g ai/ha, evaluated after 13 days (100=total damage to plant; 0=no damage to plant); for pest or weed control at 62.5 g/ha: 62.5 g ai/ha, evaluated after 13 days, 100=total damage to plant, 0=no damage to plant
Summary of the method: as §1

[6] = test system: corn (Zea mays); assay: Test G Post-Emergence Protocol; details: Zea mays, post-emergence, 312 h, read-out: Corn damage rating; for plant injury at 15.625 g/ha: 15.625 g ai/ha, evaluated after 13 days (100=total damage to plant; 0=no damage to plant); for plant injury at 62.5 g/ha: 62.5 g ai/ha; for plant injury at 62.5 g/ha / plant injury at 250 g/ha: evaluated after 13 days, 100=total damage to plant, 0=no damage to plant; for plant injury at 250 g/ha: 250 g ai/ha
Summary of the method: as §1

[7] = test system: ivy-leaved morning glory (Ipomoea hederacea); assay: Test G Pre-Emergence Protocol; details: Ipomoea, pre-emergence, 312 h, evaluated after 13 days; for pest or weed control at 15.625 g/ha: 15.625 g ai/ha; for pest or weed control at 15.625 g/ha / pest or weed control at 250 g/ha: read-out: Morningglory, Ivy-leaved damage rating (100=total damage to plant; 0=no damage to plant); for pest or weed control at 62.5 g/ha: 62.5 g ai/ha, 100=total damage to plant, 0=no damage to plant, read-out: Morningglory, Ivy-leaved damage rating; for pest or weed control at 250 g/ha: 250 g ai/ha
Summary of the method: (§2)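 One day after sowing, pots are treated with a spray of test compound formulated in acetone/water 50:50 plus 0.5% Tween 20, giving 15.625, 62.5 or 250 g/ha. Evaluation on a 0–100 damage scale follows 13 days of glasshouse growth.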

[8] = test system: velvetleaf (Abutilon theophrasti); assay: Test G Pre-Emergence Protocol; details: Abutilon theophrasti, pre-emergence, 312 h, evaluated after 13 days; for pest or weed control at 15.625 g/ha: 15.625 g ai/ha; for pest or weed control at 15.625 g/ha / pest or weed control at 250 g/ha: read-out: Velvetleaf damage rating (100=total damage to plant; 0=no damage to plant); for pest or weed control at 62.5 g/ha: 62.5 g ai/ha, 100=total damage to plant, 0=no damage to plant, read-out: Velvetleaf damage rating; for pest or weed control at 250 g/ha: 250 g ai/ha
Summary of the method: as §2

[9] = test system: redroot pigweed (Amaranthus retroflexus); assay: Test G Pre-Emergence Protocol; details: Amaranthus retroflexus, pre-emergence, 312 h, evaluated after 13 days; for pest or weed control at 15.625 g/ha: 15.625 g ai/ha; for pest or weed control at 15.625 g/ha / pest or weed control at 250 g/ha: read-out: Pigweed, Redroot damage rating (100=total damage to plant; 0=no damage to plant); for pest or weed control at 62.5 g/ha: 62.5 g ai/ha, 100=total damage to plant, 0=no damage to plant, read-out: Pigweed, Redroot damage rating; for pest or weed control at 250 g/ha: 250 g ai/ha
Summary of the method: as §2

[10] = test system: barnyardgrass (Echinochloa crus-galli); assay: Test G Pre-Emergence Protocol; details: Echinochloa crus-galli, pre-emergence, 312 h, evaluated after 13 days; for pest or weed control at 15.625 g/ha: 15.625 g ai/ha; for pest or weed control at 15.625 g/ha / pest or weed control at 250 g/ha: read-out: Barnyardgrass damage rating (100=total damage to plant; 0=no damage to plant); for pest or weed control at 62.5 g/ha: 62.5 g ai/ha, 100=total damage to plant, 0=no damage to plant, read-out: Barnyardgrass damage rating; for pest or weed control at 250 g/ha: 250 g ai/ha
Summary of the method: as §2

[11] = test system: giant foxtail (Setaria faberi); assay: Test G Pre-Emergence Protocol; details: Setaria faberi, pre-emergence, 312 h, evaluated after 13 days; for pest or weed control at 15.625 g/ha: 15.625 g ai/ha; for pest or weed control at 15.625 g/ha / pest or weed control at 250 g/ha: read-out: Foxtail, Giant damage rating (100=total damage to plant; 0=no damage to plant); for pest or weed control at 62.5 g/ha: 62.5 g ai/ha, 100=total damage to plant, 0=no damage to plant, read-out: Foxtail, Giant damage rating; for pest or weed control at 250 g/ha: 250 g ai/ha
Summary of the method: as §2

[12] = test system: corn (Zea mays); assay: Test G Pre-Emergence Protocol; details: Zea mays, pre-emergence, 312 h, evaluated after 13 days; for plant injury at 15.625 g/ha: 15.625 g ai/ha; for plant injury at 15.625 g/ha / plant injury at 250 g/ha: read-out: Corn damage rating (100=total damage to plant; 0=no damage to plant); for plant injury at 62.5 g/ha: 62.5 g ai/ha, 100=total damage to plant, 0=no damage to plant, read-out: Corn damage rating; for plant injury at 250 g/ha: 250 g ai/ha
Summary of the method: as §2

Question: How did the pest or weed control at 15.625 g/ha [1] turn out when `CN1CC(C2CCN=C(C(C)(C)C)N2)C(C(=O)Nc2ccc(F)c(F)c2F)C1=O` (stereo not shown) [Compound 1771] was run?
Answer: 0%

Question: What about the pest or weed control at 62.5 g/ha [1] of the same molecule?
Answer: 0%

Question: What about the pest or weed control at 250 g/ha [1] of the same molecule?
Answer: 0%

Question: And the pest or weed control at 15.625 g/ha [2]?
Answer: 0%

Question: And the pest or weed control at 62.5 g/ha [2]?
Answer: 0%

Question: What about the pest or weed control at 250 g/ha [2] of the same molecule?
Answer: 0%

Question: What about the pest or weed control at 15.625 g/ha [3] of the same molecule?
Answer: 0%

Question: And the pest or weed control at 62.5 g/ha [3]?
Answer: 0%

Question: What about the pest or weed control at 250 g/ha [3] of the same molecule?
Answer: 0%

Question: And the pest or weed control at 15.625 g/ha [4]?
Answer: 0%

Question: What about the pest or weed control at 62.5 g/ha [4] of the same molecule?
Answer: 0%

Question: And the pest or weed control at 250 g/ha [4]?
Answer: 0%

Question: And the pest or weed control at 15.625 g/ha [5]?
Answer: 0%

Question: And the pest or weed control at 62.5 g/ha [5]?
Answer: 0%

Question: What about the plant injury at 15.625 g/ha [6] of the same molecule?
Answer: 0%

Question: What about the plant injury at 62.5 g/ha [6] of the same molecule?
Answer: 0%

Question: What about the plant injury at 250 g/ha [6] of the same molecule?
Answer: 0%

Question: And the pest or weed control at 15.625 g/ha [7]?
Answer: 0%

Question: And the pest or weed control at 62.5 g/ha [7]?
Answer: 0%

Question: What about the pest or weed control at 250 g/ha [7] of the same molecule?
Answer: 0%

Question: And the pest or weed control at 15.625 g/ha [8]?
Answer: 0%

Question: What about the pest or weed control at 62.5 g/ha [8] of the same molecule?
Answer: 0%

Question: And the pest or weed control at 250 g/ha [8]?
Answer: 0%

Question: And the pest or weed control at 15.625 g/ha [9]?
Answer: 0%

Question: What about the pest or weed control at 62.5 g/ha [9] of the same molecule?
Answer: 0%

Question: And the pest or weed control at 250 g/ha [9]?
Answer: 0%

Question: What about the pest or weed control at 15.625 g/ha [10] of the same molecule?
Answer: 0%

Question: What about the pest or weed control at 62.5 g/ha [10] of the same molecule?
Answer: 0%

Question: And the pest or weed control at 250 g/ha [10]?
Answer: 0%

Question: What about the pest or weed control at 15.625 g/ha [11] of the same molecule?
Answer: 0%

Question: And the pest or weed control at 62.5 g/ha [11]?
Answer: 0%

Question: And the pest or weed control at 250 g/ha [11]?
Answer: 0%

Question: What about the plant injury at 15.625 g/ha [12] of the same molecule?
Answer: 0%

Question: And the plant injury at 62.5 g/ha [12]?
Answer: 0%

Question: What about the plant injury at 250 g/ha [12] of the same molecule?
Answer: 0%

Question: With `CN1C[C@H](c2cccc(C(F)(F)F)c2)[C@@H](C(=O)Nc2ccc(O)cc2F)C1=O` (racemic) [Compound 1785] as the molecule, how does the pest or weed control at 15.625 g/ha [1] read?
Answer: 0%

Question: What about the pest or weed control at 62.5 g/ha [1] of the same molecule?
Answer: 0%

Question: And the pest or weed control at 250 g/ha [1]?
Answer: 0%

Question: What about the pest or weed control at 15.625 g/ha [2] of the same molecule?
Answer: 0%

Question: And the pest or weed control at 62.5 g/ha [2]?
Answer: 0%

Question: What about the pest or weed control at 250 g/ha [2] of the same molecule?
Answer: 0%

Question: What about the pest or weed control at 15.625 g/ha [3] of the same molecule?
Answer: 0%

Question: And the pest or weed control at 62.5 g/ha [3]?
Answer: 0%

Question: What about the pest or weed control at 250 g/ha [3] of the same molecule?
Answer: 0%

Question: What about the pest or weed control at 15.625 g/ha [4] of the same molecule?
Answer: 0%

Question: And the pest or weed control at 62.5 g/ha [4]?
Answer: 0%

Question: And the pest or weed control at 250 g/ha [4]?
Answer: 0%

Question: And the pest or weed control at 15.625 g/ha [5]?
Answer: 0%

Question: What about the pest or weed control at 62.5 g/ha [5] of the same molecule?
Answer: 0%

Question: What about the plant injury at 15.625 g/ha [6] of the same molecule?
Answer: 0%

Question: What about the plant injury at 62.5 g/ha [6] of the same molecule?
Answer: 0%

Question: What about the plant injury at 250 g/ha [6] of the same molecule?
Answer: 0%

Question: And the pest or weed control at 15.625 g/ha [7]?
Answer: 0%

Question: And the pest or weed control at 62.5 g/ha [7]?
Answer: 0%

Question: What about the pest or weed control at 250 g/ha [7] of the same molecule?
Answer: 0%

Question: What about the pest or weed control at 15.625 g/ha [8] of the same molecule?
Answer: 0%

Question: And the pest or weed control at 62.5 g/ha [8]?
Answer: 0%

Question: What about the pest or weed control at 250 g/ha [8] of the same molecule?
Answer: 0%

Question: What about the pest or weed control at 15.625 g/ha [9] of the same molecule?
Answer: 0%

Question: What about the pest or weed control at 62.5 g/ha [9] of the same molecule?
Answer: 0%

Question: What about the pest or weed control at 250 g/ha [9] of the same molecule?
Answer: 20%

Question: What about the pest or weed control at 15.625 g/ha [10] of the same molecule?
Answer: 0%

Question: And the pest or weed control at 62.5 g/ha [10]?
Answer: 0%

Question: And the pest or weed control at 250 g/ha [10]?
Answer: 0%

Question: And the pest or weed control at 15.625 g/ha [11]?
Answer: 0%

Question: And the pest or weed control at 62.5 g/ha [11]?
Answer: 0%

Question: What about the pest or weed control at 250 g/ha [11] of the same molecule?
Answer: 10%

Question: What about the plant injury at 15.625 g/ha [12] of the same molecule?
Answer: 0%

Question: And the plant injury at 62.5 g/ha [12]?
Answer: 0%

Question: And the plant injury at 250 g/ha [12]?
Answer: 0%
